From ChEMBL document CHEMBL3887000, “Inhibitors of the renal outer medullary potassium channel” (2016)

Experiments:
[1] = molecular target: T1, ATP-sensitive inward rectifier potassium channel 1 (Homo sapiens, UniProt P48048); experiment: Thallium Flux Assay: The ROMK channel functional thallium flux assay is performed in 384 wells, using the FLIPR-Tetra instrument. HEK-hKir1.1 cells are seeded in Poly-D-Lysine microplates and kept in a 37° C.-10% CO2 incubator overnight. On the day of the experiment, the growth media is replaced with the FluxOR reagent loading buffer and incubated, protected from light, at ambient temperature (23-25° C.) for 90 min. The loading buffer is replaced with assay buffer test compound followed by 30 min incubation at ambient temperature, where the Thallium/Potassium stimulant is added to the microplate. Step Protocol 1. Seed HEK-hKir1.1 cells (50 ul at 20,000 cells/well) in 384-well PDL coated Microplates 2. Allow cells to adhere overnight in humidified 37° C./10% CO2 incubator 3. Completely remove cell growth media from microplate and replace with 25 ul loading buffer 4. Incubate Microplate at room temperature, protected form light, for 90 min 5. Remove loading buffer and replace with 25 ul 1x Assay Buffer±test compound.Â 6. Incubate microplate at room temperature, protected form light, for 30 min 7. At FLIPR-Tetra 384: Add stimulant (Thallium/Potassium) solution to microplate and monitor fluorescence. Excitation=400 nm, Emission=460 & 580 nm. Collect data for 10 min.Â Data Calculation: The fluorescence intensity of wells containing 3 uM of a standard control ROMK inhibitor of the present invention is used to define the ROMK-sensitive component of thallium flux. Fluorescence in the presence of test compounds is normalized to control values to provide % fluorescence change.
T1 sequence (P48048 whole entry): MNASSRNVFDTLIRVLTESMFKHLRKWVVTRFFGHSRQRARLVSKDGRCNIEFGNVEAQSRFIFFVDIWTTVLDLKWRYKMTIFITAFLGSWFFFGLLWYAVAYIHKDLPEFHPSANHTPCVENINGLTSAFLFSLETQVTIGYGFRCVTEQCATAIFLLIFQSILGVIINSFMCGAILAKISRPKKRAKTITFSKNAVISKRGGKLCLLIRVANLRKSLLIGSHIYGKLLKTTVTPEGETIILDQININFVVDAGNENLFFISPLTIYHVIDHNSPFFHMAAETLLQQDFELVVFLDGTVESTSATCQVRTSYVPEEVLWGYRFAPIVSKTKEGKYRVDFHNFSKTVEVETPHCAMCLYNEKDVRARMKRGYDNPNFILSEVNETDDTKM

[2] = molecular target: T1, ATP-sensitive inward rectifier potassium channel 1; experiment: Electrophysiology Assay: Block of Kir1.1 (ROMK1) currents was examined by whole cell voltage clamp (Hamill et. al. Pfluegers Archives 391:85-100 (1981)) using the IonWorks Quattro automated electrophysiology platform (Molecular Devices, Sunnyvale, Calif.). Chinese hamster ovary cells stably expressing Kir1.1 channels were maintained in T-75 flasks in cell culture media in a humidified 10% CO2 incubator at 37° C. Prior to an experiment, Kir1.1 expression was induced by overnight incubation with 1 mM sodium butyrate. On the day of the experiment, cells were dissociated with 2.5 ml of Versene (Invitrogen 15040-066) for approximately 6 minutes at 37° C. and suspended in 10 ml of bath solution containing (in mM): 150 NaCl, 10 KCl, 2.7 CaCl2, 0.5 MgCl2, 5 HEPES, pH 7.4. After centrifugation, the cell pellet was resuspended in approximately 4.0 ml of bath solution and placed in the IonWorks instrument. The intracellular solution consisted of (in mM): 80 K gluconate, 40 KCl, 20 KF, 3.2 MgCl2, 3 EGTA, 5 Hepes, pH 7.4. Electrical access to the cytoplasm was achieved by perforation in 0.13 mg/ml amphotericin B for 4 minutes. Amphotericin B (Sigma A-4888) was prepared as a 40 mg/ml solution in DMSO.; type: cell-based

| Structure (SMILES) | IC50 [1] [nM] | IC50 [2] [nM] |
| --- | --- | --- |
| Cc1c([C@@H](O)CN2CCC3(CCCN3C[C@H](O)c3ccc4c(c3C)COC4=O)C2)ccc2c1COC2=O (stereo partly specified) | 91 | 11 |
| Cc1c([C@@H](O)CN2CCC3(CC2)CCN(C[C@H](O)c2ccc4c(c2C)COC4=O)C3)ccc2c1COC2=O | 1210 |  |
| Cc1c([C@@H](O)CN2C(C)CC3CN(CC(O)c4ccc(C#N)cn4)CC32)ccc2c1COC2=O (single isomer, unassigned) |  | 39 |
| Cc1c([C@@H](O)CN2CCC3CN(S(=O)(=O)c4ccc(C#N)cc4)CC32)ccc2c1COC2=O (single isomer, unassigned) | 402 | 62 |
